Read-outs that look alike come from different tables or passages of the source.
Key:
Format in all cases: in vivo
[1] = tested on: Plutella xylostella (Diamond Back Moth); experiment: Example B3: Plutella xylostella, artificial diet; conditions: 120 h, read-out: effect in at least one of the two categories (mortality or growth inhibition)
Protocol: Example B3: Plutella xylostella (Diamond Back Moth)
(§1) 24-well microtiter plates with artificial diet were treated with aqueous test solutions prepared from 10′000 ppm DMSO stock solutions by pipetting. After drying, the plates were infested with L2 larvae (10 to 15 per well). The samples were assessed for mortality and growth inhibition in comparison to untreated samples 5 days after infestation.

[2] = tested on: Spodoptera littoralis (Egyptian Cotton Leaf Worm); experiment: Example B1: Spodoptera littoralis, sprayed cotton leaf discs; conditions: foliar, 72 h, read-out: control (at least one of mortality, anti-feedant effect, growth inhibition)
Protocol: Example B1: Spodoptera littoralis (Egyptian Cotton Leaf Worm)
Cotton leaf discs were placed on agar in 24-well microtiter plates and sprayed with aqueous test solutions prepared from 10′000 ppm DMSO stock solutions. After drying, the leaf discs were infested with five L1 larvae. The samples were assessed for mortality, anti-feedant effect, and growth inhibition in comparison to untreated samples 3 days after infestation. Control of Spodoptera littoralis by a test sample is when at least one of mortality, anti-feedant effect, and growth inhibition is higher than the untreated sample.

[3] = tested on: Myzus persicae (Green Peach Aphid); experiment: Example B5: Myzus persicae, sprayed sunflower leaf discs; conditions: foliar, 144 h, application rate of 200 ppm, mixed ages, 6 days after infestation
Protocol: Example B5: Myzus persicae (Green Peach Aphid)
(§2) Sunflower leaf discs were placed on agar in a 24-well microtiter plate and sprayed with aqueous test solutions prepared from 10′000 ppm DMSO stock solutions. After drying, the leaf discs were infested with an aphid population of mixed ages. The samples were assessed for mortality 6 days after infestation.

[4] = tested on: Myzus persicae (Green Peach Aphid); experiment: Example B6: Myzus persicae, roots of pea seedlings in test solution; conditions: 144 h, test rate of 24 ppm, pea seedling roots in test solution, 6 days
Protocol: Example B6: Myzus persicae (Green Peach Aphid)
Roots of pea seedlings infested with an aphid population of mixed ages were placed directly in the aqueous test solutions prepared from 10′000 DMSO stock solutions. The samples were assessed for mortality 6 days after placing seedlings in test solutions.

[5] = tested on: Diabrotica Balteata (Corn Root Worm); experiment: Example B4: Diabrotica balteata, sprayed maize sprouts; conditions: 96 h, application rate of 200 ppm, L2 larvae, 4 days after infestation, read-out: effect in at least one of the two categories (mortality or growth inhibition)
Protocol: Example B4: Diabrotica Balteata (Corn Root Worm)
as §1, with “Maize sprouts, placed on an agar layer in 24-well” for “24-well”, “plates” for “plates with artificial diet”, “spraying.” for “pipetting.”, “(6” for “(10”, “10” for “15”, “4” for “5”

[6] = tested on: Bemisia tabaci (Cotton White Fly); experiment: Example B7: Bemisia tabaci, sprayed cotton leaf discs; conditions: foliar, 144 h, application rate of 200 ppm, adult white flies, 6 days after incubation
Protocol: Example B7: Bemisia tabaci (Cotton White Fly)
Cotton leaf discs were placed on agar in 24-well microtiter plates and sprayed with aqueous test solutions prepared from 10′000 ppm DMSO stock solutions. After drying the leaf discs were infested with adult white flies. The samples were checked for mortality 6 days after incubation.

[7] = tested on: Spodoptera littoralis (Egyptian Cotton Leaf Worm); experiment: Example B2: Spodoptera littoralis, systemic test via lettuce roots in agar; conditions: 144 h, test rate of 12.5 ppm, uptake via lettuce roots, 6 days after infestation, read-out: effect in at least one of the three categories (mortality, anti-feedancy, or growth inhibition)
Source text: Example B2: Spodoptera littoralis (Egyptian Cotton Leaf Worm)
Test compounds were applied by pipette from 10′000 ppm DMSO stock solutions into 24-well plates and mixed with agar. Lettuce seeds were placed on the agar and the multi well plate was closed by another plate which contains also agar. After 7 days the roots have absorbed the compound and the lettuce has grown into the lid plate. The lettuce leafs were now cut off into the lid plate. Spodoptera eggs were pipetted through a plastic stencil on a humid gel blotting paper and the plate closed with it. The samples were assessed for mortality, anti-feedant effect and growth inhibition in comparison to untreated samples 6 days after infestation.

[8] = tested on: Euschistus heros (Neotropical Brown Stink Bug); experiment: Example B8: Euschistus heros, sprayed soybean leaf; conditions: 120 h, application rate of 200 ppm, N-2 nymphs, 5 days after infestation
Protocol: Example B8: Euschistus heros (Neotropical Brown Stink Bug)
Soybean leaf on agar in 24-well microtiter plates were sprayed with aqueous test solutions prepared from 10′000 ppm DMSO stock solutions. After drying the leaf were infested with N-2 nymphs. The samples were assessed for mortality 5 days after infestation.

[9] = tested on: Tetranychus urticae (Two-Spotted Spider Mite); experiment: Example B10: Tetranychus urticae, sprayed bean leaf discs; conditions: foliar, 192 h
Protocol: Example B10: Tetranychus urticae (Two-Spotted Spider Mite)
Bean leaf discs on agar in 24-well microtiter plates were sprayed with aqueous test solutions prepared from 10′000 ppm DMSO stock solutions. After drying the leaf discs were infested with a mite population of mixed ages. The samples were assessed for mortality on mixed population (mobile stages) 8 days after infestation.

[10] = tested on: Frankliniella occidentalis (Western Flower Thrips); experiment: Example B12: Frankliniella occidentalis, sprayed sunflower leaf discs; conditions: foliar, 168 h, application rate of 200 ppm, mixed ages, 7 days after infestation
Protocol: Example B12: Frankliniella occidentalis (Western Flower Thrips)
as §2, with “in” for “in a”, “plates” for “plate”, “[…]” for “10′000 ppm”, “drying” for “drying,”, “a Frankliniella” for “an aphid”, “7” for “6”

[11] = tested on: Thrips tabaci (Onion Thrips); experiment: Example B11: Thrips tabaci, sprayed sunflower leaf discs; conditions: foliar, 144 h, application rate of 200 ppm, mixed ages, 6 days after infestation
Protocol: Example B11: Thrips tabaci (Onion Thrips)
as §2, with “in” for “in a”, “plates” for “plate”, “drying” for “drying,”, “a thrips” for “an aphid”

[12] = application rate of 200 ppm, artificial diet, L2 larvae, 5 days after infestation
[13] = application rate of 200 ppm, cotton leaf discs, L1 larvae, 3 days after infestation

CCS(=O)(=O)c1cc(C#C[Si](C)(C)C)cnc1-c1nc2cc(C(F)(F)F)ncc2n1C [P1, 2-[5-ethylsulfonyl-6-[3-methyl-6-(trifluoromethyl)imidazo[4,5-c]pyridin-2-yl]-3-pyridyl]ethynyl-trimethyl-silane]
≥ 80%: percent effect (mortality or growth inhibition) at 200 ppm [1] | percent control (mortality, anti-feedant effect or growth inhibition) at 200 ppm [2]

C#Cc1cnc(-c2nc3cc(C(F)(F)F)ncc3n2C)c(S(=O)(=O)CC)c1 [P2, 2-(3-ethylsulfonyl-5-ethynyl-2-pyridyl)-3-methyl-6-(trifluoromethyl)imidazo[4,5-c]pyridine]
≥ 80%: percent effect (mortality or growth inhibition) at 200 ppm [1, 12] | percent control (mortality, anti-feedant effect or growth inhibition) at 200 ppm [2, 13]

C=Cc1cnc(-c2nc3cc(C(F)(F)F)ncc3n2C)c(S(=O)(=O)CC)c1 [P3, 2-(3-ethylsulfonyl-5-vinyl-2-pyridyl)-3-methyl-6-(trifluoromethyl)imidazo[4,5-c]pyridine]
≥ 80%: mortality at 200 ppm [3] | percent effect (mortality or growth inhibition) at 200 ppm [1, 12] | mortality at 24 ppm [4] | percent effect (mortality or growth inhibition) at 200 ppm [5] | percent control (mortality, anti-feedant effect or growth inhibition) at 200 ppm [2, 13]

CCS(=O)(=O)c1cc(C#Cc2ccc(Cl)cc2)cnc1-c1nc2cc(C(F)(F)F)ncc2n1C [P4]
≥ 80%: mortality at 200 ppm [3] | percent effect (mortality or growth inhibition) at 200 ppm [1, 12] | percent effect (mortality or growth inhibition) at 200 ppm [5] | percent control (mortality, anti-feedant effect or growth inhibition) at 200 ppm [2, 13]

CCS(=O)(=O)c1cc(/C=C/C2CCCCC2)cnc1-c1nc2cc(C(F)(F)F)ncc2n1C [P5]
≥ 80%: percent effect (mortality or growth inhibition) at 200 ppm [1, 12] | mortality at 200 ppm [6] | percent effect (mortality or growth inhibition) at 200 ppm [5]

C/C=C/c1cnc(-c2nc3cc(C(F)(F)F)ncc3n2C)c(S(=O)(=O)CC)c1 [P6]
≥ 80%: percent control (mortality, anti-feedancy or growth inhibition) at 12.5 ppm [7] | mortality at 200 ppm [3] | mortality at 200 ppm [8] | percent effect (mortality or growth inhibition) at 200 ppm [1, 12] | percent effect (mortality or growth inhibition) at 200 ppm [5] | percent control (mortality, anti-feedant effect or growth inhibition) at 200 ppm [2, 13]

CCS(=O)(=O)c1cc(C2CC2)cnc1-c1nc2cc(C(F)(F)F)ncc2n1C [P7, 2-(5-cyclopropyl-3-ethylsulfonyl-2-pyridyl)-3-methyl-6-(trifluoromethyl)imidazo[4,5-c]pyridine]
≥ 80%: percent control (mortality, anti-feedancy or growth inhibition) at 12.5 ppm [7] | mortality at 200 ppm [3] | mortality at 200 ppm [8] | percent effect (mortality or growth inhibition) at 200 ppm [1, 12] | mortality at 24 ppm [4] | percent effect (mortality or growth inhibition) at 200 ppm [5] | percent control (mortality, anti-feedant effect or growth inhibition) at 200 ppm [2, 13]

CCS(=O)(=O)c1cc(C#Cc2ccc(Cl)cc2)ccc1-c1nc2cc(C(F)(F)F)ncc2n1C [P8]
≥ 80%: percent control (mortality, anti-feedancy or growth inhibition) at 12.5 ppm [7] | mortality at 200 ppm [8] | percent effect (mortality or growth inhibition) at 200 ppm [1, 12] | mortality at 200 ppm [6] | percent effect (mortality or growth inhibition) at 200 ppm [5] | percent control (mortality, anti-feedant effect or growth inhibition) at 200 ppm [2, 13]

CCS(=O)(=O)c1cc(C#CC(F)(F)F)ccc1-c1nc2cc(C(F)(F)F)ncc2n1C [P9]
≥ 80%: percent effect (mortality or growth inhibition) at 200 ppm [5] | mortality at 200 ppm [9]

CCS(=O)(=O)c1cc(/C=C/c2ccc(C(F)(F)F)cc2)ccc1-c1nc2cc(C(F)(F)F)ncc2n1C [P10]
≥ 80%: mortality at 200 ppm [8] | percent effect (mortality or growth inhibition) at 200 ppm [1, 12] | percent effect (mortality or growth inhibition) at 200 ppm [5] | percent control (mortality, anti-feedant effect or growth inhibition) at 200 ppm [2, 13]

CCS(=O)(=O)c1cc(C=C(C)C)cnc1-c1nc2cc(C(F)(F)F)ncc2n1C [P11]
≥ 80%: mortality at 200 ppm [3] | mortality at 200 ppm [8] | percent effect (mortality or growth inhibition) at 200 ppm [1, 12] | percent effect (mortality or growth inhibition) at 200 ppm [5] | percent control (mortality, anti-feedant effect or growth inhibition) at 200 ppm [2, 13]

CCS(=O)(=O)c1cc(C2=CCC(C)(C)CC2)cnc1-c1nc2cc(C(F)(F)F)ncc2n1C [P12]
≥ 80%: mortality at 200 ppm [3] | mortality at 200 ppm [8] | percent effect (mortality or growth inhibition) at 200 ppm [1, 12] | mortality at 200 ppm [6]

C=Cc1ccc(-c2nc3cc(C(F)(F)F)ncc3n2C)c(S(=O)(=O)CC)c1 [P13]
≥ 80%: percent control (mortality, anti-feedancy or growth inhibition) at 12.5 ppm [7] | percent effect (mortality or growth inhibition) at 200 ppm [1, 12] | percent effect (mortality or growth inhibition) at 200 ppm [5] | percent control (mortality, anti-feedant effect or growth inhibition) at 200 ppm [2, 13]

C=C(c1ccc(-c2nc3cc(C(F)(F)F)ncc3n2C)c(S(=O)(=O)CC)c1)C(F)(F)F [P14]
≥ 80%: percent effect (mortality or growth inhibition) at 200 ppm [1, 12] | percent effect (mortality or growth inhibition) at 200 ppm [5] | percent control (mortality, anti-feedant effect or growth inhibition) at 200 ppm [2, 13]

CCS(=O)(=O)c1cc(C2(C#N)CC2)ccc1-c1nc2cc(C(F)(F)F)ncc2n1C [P15, 1-[3-ethylsulfonyl-4-[3-methyl-6-(trifluoromethyl)imidazo[4,5-c]pyridin-2-yl]phenyl]cyclopropanecarbonitrile]
≥ 80%: percent control (mortality, anti-feedancy or growth inhibition) at 12.5 ppm [7] | mortality at 200 ppm [10] | mortality at 200 ppm [3] | mortality at 200 ppm [8] | percent effect (mortality or growth inhibition) at 200 ppm [1, 12] | mortality at 200 ppm [6] | mortality at 24 ppm [4] | percent effect (mortality or growth inhibition) at 200 ppm [5] | percent control (mortality, anti-feedant effect or growth inhibition) at 200 ppm [2, 13] | mortality at 200 ppm [9]

CCS(=O)(=O)c1cc(C2(C#N)CC2)cnc1-c1nc2cc(C(F)(F)F)ncc2n1C [P16]
≥ 80%: percent control (mortality, anti-feedancy or growth inhibition) at 12.5 ppm [7] | mortality at 200 ppm [10] | mortality at 200 ppm [3] | mortality at 200 ppm [8] | percent effect (mortality or growth inhibition) at 200 ppm [1, 12] | mortality at 200 ppm [6] | mortality at 24 ppm [4] | percent effect (mortality or growth inhibition) at 200 ppm [5] | percent control (mortality, anti-feedant effect or growth inhibition) at 200 ppm [2, 13] | mortality at 200 ppm [11]

C=C(c1cnc(-c2nc3cc(C(F)(F)F)ncc3n2C)c(S(=O)(=O)CC)c1)C(F)(F)F [P17, 2-[3-ethylsulfonyl-5-[1-(trifluoromethyl)vinyl]-2-pyridyl]-3-methyl-6-(trifluoromethyl)imidazo[4,5-c]pyridine]
≥ 80%: percent effect (mortality or growth inhibition) at 200 ppm [5]
